Measured values as given in article PMC7217186 (The Febs Journal, 2019).

Target: T1, TKS (tetraketide synthase) (Cannabis sativa, UniProt B1Q2B6)
T1 construct: gene OLS; codon-optimised gene in pETM11, N-terminal TEV-cleavable His6 tag, cut from wild type after purification; E. coli BL21(DE3); dimer (two dimers in asymmetric unit); Cys157 oxidised to sulfinic acid in crystal
Experiment: LC-MS of products (olivetol, PDAL, HTAL)
Assay type: biochemical
Settings: 10 μM hexanoyl-CoA, 30 μM malonyl-CoA, 10 μM enzyme, 25 mM Tris pH 8, 150 mM NaCl, 5% glycerol, 25 °C, overnight

T1 sequence (B1Q2B6 2-385): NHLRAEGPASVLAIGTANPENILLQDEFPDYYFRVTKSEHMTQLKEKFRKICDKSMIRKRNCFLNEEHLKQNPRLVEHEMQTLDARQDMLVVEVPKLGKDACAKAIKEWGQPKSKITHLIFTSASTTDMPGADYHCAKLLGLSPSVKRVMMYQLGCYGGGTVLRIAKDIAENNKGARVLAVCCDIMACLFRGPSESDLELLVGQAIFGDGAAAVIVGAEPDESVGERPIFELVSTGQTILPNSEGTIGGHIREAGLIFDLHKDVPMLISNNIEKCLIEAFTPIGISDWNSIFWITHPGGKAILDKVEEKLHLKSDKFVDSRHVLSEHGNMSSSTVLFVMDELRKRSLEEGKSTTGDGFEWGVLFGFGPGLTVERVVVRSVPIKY

| Compound | LC-MS of products (olivetol, PDAL, HTAL) |
| --- | --- |
| CC(C)(COP(=O)(O)OP(=O)(O)OC[C@H]1O[C@@H](n2cnc3c(N)ncnc32)[C@H](O)[C@@H]1OP(=O)(O)O)[C@@H](O)C(=O)NCCC(=O)NCCSC(=O)CC(=O)O [malonyl-CoA] | A major product generated by TKS with malonyl‐CoA and hexanoyl‐CoA was identified as olivetol |
| CCCCCC(=O)SCCNC(=O)CCNC(=O)[C@H](O)C(C)(C)COP(=O)(O)OP(=O)(O)OC[C@H]1O[C@@H](n2cnc3c(N)ncnc32)[C@H](O)[C@@H]1OP(=O)(O)O [hexanoyl-CoA] | A major product generated by TKS with malonyl‐CoA and hexanoyl‐CoA was identified as olivetol |
